{"source": "patent US12187700B2", "about": "“Polymorphs and cocrystals of a cardiac troponin activator” (Amgen Inc., priority 2019, dated 2025)", "assay_type_in_all_cases": "physicochemical", "key": {"[1]": {"test": "Solid stability of drug substance (chemical by UPLC; physical by XRPD, DSC, TGA)", "conditions": "stored at 25° C./60% RH, 40° C./75% RH, 40° C./ambient or 60° C./ambient conditions", "procedure": "Solid Stability Drug substance was stored at 25 C/60% RH, 40 C/75% RH, 40 C/ambient or 60 C/ambient conditions. Chemical stability was determined at each timepoint by dissolving the drug substance in 50% acetonitrile water for UPLC analysis. Physical stability was determined by analyzing the solid by XRPD, DSC and TGA."}, "[2]": {"test": "Solubility in water (excess solid dispersed at least 24 hours at room temperature, UPLC-UV)", "procedure": "Water: An excess of solid was added to water to produce a suspension and dispersed for at least 24 hours at room temperature. Suspensions were filtered. Filtrate was analyzed by UPLC-UV and compared against a standard curve to determine the solution concentration of the crystal form. Solids were analyzed by XRPD to determine the crystal form."}, "[3]": {"test": "Moisture sorption (dynamic vapor sorption, hygroscopicity 0 to 95% RH)", "conditions": "for hygroscopicity: DVS, 0 to 95% RH", "procedure": "Moisture Sorption Moisture sorption data was collected using a dynamic vapor sorption (DVS) analyzer. A sample size of approximately 5-10 mg was used in a quartz pan. Hygroscopicity was evaluated from 0 to 95% RH in increments of 5 or 10% RH. Data for adsorption and desorption cycles were collected. Equilibrium criteria were set at 0.002% weight change in 5 minute with a maximum equilibration time of 120 minutes."}, "[4]": {"test": "Physical form stability (dehydration of the monohydrate)", "conditions": "under vacuum at ambient temperature, at temperatures greater than 25° C. or at low humidity"}, "[5]": {"test": "Static storage stability of cocrystals and amorphous form by XRPD"}}, "note": "Counter-ions that a name gives are not always drawn.", "data": [{"molecule": "CS(=O)(=O)c1cncc(C(=O)N2[C@@H](C(=O)N[C@@H](c3cc(F)c(C(F)(F)F)cc3F)C3CC3)C[C@H]3C[C@H]32)c1", "note": "[Form IV]", "values": [{"measurement": "time physically and chemically stable on storage", "setting": "[1]", "value": 13, "unit": "weeks"}, {"measurement": "solubility in water", "setting": "[2]", "value": 10, "unit": "µg/mL"}, {"measurement": "hygroscopicity", "setting": "[3]", "value": "non-hygroscopic"}]}, {"molecule": "CS(=O)(=O)c1cncc(C(=O)N2[C@@H](C(=O)N[C@@H](c3cc(F)c(C(F)(F)F)cc3F)C3CC3)C[C@H]3C[C@H]32)c1", "note": "[Form III]", "values": [{"measurement": "stability of the monohydrate (dehydration)", "setting": "[4]", "value": "dehydrates"}]}, {"molecule": "CS(=O)(=O)c1cncc(C(=O)N2[C@@H](C(=O)N[C@@H](c3cc(F)c(C(F)(F)F)cc3F)C3CC3)C[C@H]3C[C@H]32)c1", "note": "[Urea cocrystal]", "values": [{"measurement": "storage stability by XRPD", "setting": "[5]; 25° C./97% RH storage 7 d", "value": "Stable"}]}, {"molecule": "CS(=O)(=O)c1cncc(C(=O)N2[C@@H](C(=O)N[C@@H](c3cc(F)c(C(F)(F)F)cc3F)C3CC3)C[C@H]3C[C@H]32)c1", "note": "[Hydrochloride Salt Form]", "values": [{"measurement": "hygroscopicity", "setting": "[3]", "value": "hygroscopic"}, {"measurement": "salt stability upon exposure to water", "setting": "[3]; exposure to water during moisture sorption experiments or slurry in water", "value": "disproportionates to Free Form"}]}, {"molecule": "CS(=O)(=O)c1cncc(C(=O)N2[C@@H](C(=O)N[C@@H](c3cc(F)c(C(F)(F)F)cc3F)C3CC3)C[C@H]3C[C@H]32)c1", "note": "[Glycerol cocrystal]", "values": [{"measurement": "storage stability by XRPD", "setting": "[5]; 40° C./75% RH storage 7 d", "value": "Stable"}]}, {"molecule": "CS(=O)(=O)c1cncc(C(=O)N2[C@@H](C(=O)N[C@@H](c3cc(F)c(C(F)(F)F)cc3F)C3CC3)C[C@H]3C[C@H]32)c1", "note": "[Amorphous Form]", "values": [{"measurement": "time to crystallization upon static storage", "setting": "[5]; static storage at 80° C./0% RH or 40° C./75% RH", "value": "≤ 1", "unit": "week"}]}, {"molecule": "CS(=O)(=O)c1cncc(C(=O)N2[C@@H](C(=O)N[C@@H](c3cc(F)c(C(F)(F)F)cc3F)C3CC3)C[C@H]3C[C@H]32)c1", "note": "[Form I]", "values": [{"measurement": "time physically and chemically stable on storage", "setting": "[1]", "value": 14, "unit": "weeks"}, {"measurement": "solubility", "setting": "[2]; thermodynamic from solid", "value": 13, "unit": "µg/mL"}, {"measurement": "hygroscopicity", "setting": "[3]", "value": "non-hygroscopic"}]}]}
